This is an account of results in US6264974A, “Buccal and sublingual administration of physostigmine” (priority 1998, dated 2001).

“Also recorded” adds a separate entry of the source.

This series is described as follows: Intravenous and buccal pharmacokinetics of Physostigmine in rats (plasma levels by HPLC with fluorimetric detector). The class given is in vivo, male Lewis rats. The settings on record: rat plasma, 200 μg/kg, Physostigmine hemisulfate in normal saline. As for the experimental part:
Lewis Rats were used to evaluate the buccal/sublingual delivery of Physostigmine. The Physostigmine drug concentration in rat plasma was determined using a conventional high pressure liquid chromatography analytical procedure which measures drug concentration by fluorimetric detector.
To determine whether Physostigmine would be absorbed by mucosa and produce a sustained plasma level, two separate groups of male Lewis rats, were administered Physostigmine hemisulfate, a salt of Physostigmine, intravenously or buccally in normal saline. The rats weighed approximately 300 g and were fasted overnight prior to dosing. All rats were anesthetized with pentobarbital (50 mg/kg) prior to dosing. The jugular vein was cannulated and attached to a syringe through 3-way stopcock for blood collections. Blood samples (1 ml) were withdrawn through the jugular cannula and replaced with an equal volume of fresh blood (37 degrees C) from separate blood donor rats after each sampling as a function of time. […]
The terminal decay rate constant (k) and the terminal half-life (t1/2) after intravenous administration was calculated by linear regression of the terminal portion of the individual sample In Cp (plasma drug concentration) versus time plot of FIG. 1.

Take `CNC(=O)Oc1ccc2c(c1)[C@]1(C)CCN(C)[C@@H]1N2C` [Physostigmine, 1,2,3,3a,8,8a-hexahydro-1,3a,8-trimethylpyrrolo[2,3-b]indol-5-ol methylcarbamate]: under “0.2 mg/kg, intravenous, FIG. 1, read-out: plasma half-life (terminal half-life, t1/2)”, the half-life amounted to 25 min. Also, the “plasma concentration vs. time profile” value (buccal, esophagus ligated, over eight hours (t1/2 could not be determined), FIG. 2) is “did not decay for the period of the experiment; also recorded: highly sustained”.
